Experimental data taken from patent US20040171954A1, “Methods for determining whether to provide an inhibitor of sympathetic nervous system activity to a human being suffering from an autoimmune disease or fibryomyalgia” (CNS-Rheumatology, Inc., priority 2003, published 2004).
Read-outs that look alike come from different tables or passages of the source.

Key:
[1] = test system: patient one suffering from Ankylosing Spondylitis; experiment: Clinical course of a patient with ankylosing spondylitis (Example 7); assay type: in vivo, human; settings: for control of the disease by prior therapy: before pramipexole
[2] = test system: patient suffering from severe, previously untreatable, psoriatic arthropathy; experiment: Clinical course of a patient with severe psoriatic arthropathy (Example 3); assay type: in vivo, human; settings: one patient
From the text: The following heart rate variability measurements were made in the patient using system 10: vagus, 0.16; sympathetic, 54; tension, 220; total power, 283.

[3] = test system: patient two suffering from autoimmune hemolytic anemia with leukopenia; settings: one patient
From the text: Patient two suffered from autoimmune hemolytic anemia. The patient had leukopenia (reduced white blood cell (WBC) count; 2,300 WBC). Steroids were recommended, but the patient refused. The patient's heart rate variability was monitored using system 10: vagus, 0.17; sympathetic, 52; tension, 199; total power, 201. […] Therefore, pramipexole was prescribed for administration at night to address sympathetic overactivity. The patient's symptoms improved, and their WBC count began to increase (2400). These changes correlated with a reduction in excessive sympathetic nervous system activity: vagus, 0.22; sympathetic, 45; tension, 147; total power, 294.
The patient discontinued pramipexole against medical advice. WBC decreased to 2100 as excessive sympathetic nervous system activity increased: vagus, 0.20; sympathetic, 70; tension, 236; total power, 280.

[4] = test system: sympathetic nervous system activity in the heart; settings: for sympathetic / tension / total power / vagus: one patient on pramipexole plus steroid therapy; for sympathetic (heart rate variability) / tension (heart rate variability) / total power (heart rate variability) / vagus (heart rate variability): one patient
From the text: This system is commercially available as The OmegaWave Sport Technology System, which is sold by OmegaWave Sport, Inc., 2732 Sunnyview Lane, Eugene, Oreg. 97405, USA. […] FIG. 4 illustrates one embodiment of components of the system and various electrode/sensor placements on the human body. System 10 is adapted to perform the following tests on a human body: Heart Rate Variability; Differential electrocardiogram (ECG); Omega Wave; Jump; and Stimulus Response. In the practice of the present invention, system 10 is used to perform the Heart Rate Variability test.
Referring to FIG. 7, a diagram that illustrates the steps of conducting a heart rate variability test in accordance with the present invention is shown. In step 110, a person receiving a test (PRT) positions him or herself for sensor attachment. In step 112, the sensors are attached. In step 114, a user selects the desired heart rate variability test from CD 50. In step 115, ID 40 is initialized for appropriate data sensing and data propagation by CD 50. In step 116, the PRT is instructed to attain or maintain a state of rest. In step 117, the machine executable steps of the selected test(s) is/are carried out by CD 50. […] A description of machine executable steps of the heart rate variability test selected in step 114 of FIG. 7 is now presented. Processing cardiac signals as discussed below permits quantitative and qualitative analysis of the functional state of cardiac activity.
In this representative heart rate variability test, four electrode sensors are preferably utilized and they are preferably placed one each on the wrists and ankles. One sensor electrode is a ground and the other three collect standard ECG data or the like. Alternative sensor placement may be utilized. The heart rate variability test is based on the registration of cardiac contractions of standard electrocardiogram (ECG) readings over the course of a fixed span of time. The test records the change of period length (in seconds) between each cardiac contraction which is the time between ECG spikes, which are designated with the letter R.
After initialization of ID 40, cardiac muscle electrical activity is recorded for a fixed time period, e.g., 128 seconds (step 152). A fixed number of consecutive heart beat intervals (RR intervals), e.g., 100, is selected and analyzed (step 154). The intervals are processed in this exemplary method using a fast Fourier transformation to achieve frequency spectrum analysis (step 156) and the density of interval frequencies is plotted in a frequency spectrum-gram (step 158). Frequency spectrum analysis is known in the art as described supra. The following frequency ranges are preferably plotted: high frequency=0.15 to 0.4 Hz; low frequency=0.04 to 0.15 Hz; and very low frequency=0.004 to 0.04 Hz.
In step 172, various indices for cardiovascular system performance are calculated based on frequency spectrum and other data and these include: Vagus (parasympathetic) Regulation (VR); Humoral Regulation (HR); Sympathetic Regulation (SR); Tension (Stress) Index; Share of aperiodic influences; Standard deviation; and Frequency of Cardiac Contractions (FCC). Calculation of these or related indices is known in the art. (See, e.g., Baevskiy, R. M., et al., Mathematical Analysis of Changes in Heart Rate Rhythm Under Stress, Moscow Science, 1984). These indices may be interpreted to generate textual conclusions about the functional state of cardiac activity.
The OmegaWave Sport Technology System, described herein and in published United States patent application serial number U.S. 2002/0045835 A1, provides three values that can be used singly, or in combination, to determine whether sympathetic nervous system activity predominates over parasympathetic nervous system activity in the heart: activity of the vagus (parasympathetic) regulation mechanisms; activity of the sympathetic regulation mechanisms; and Tension index.

[5] = after the patient discontinued pramipexole
[6] = pramipexole 2.0 mg per day at bedtime, with etanercept
[7] = pramipexole increased over 4 weeks to 4.5 mg per day at bedtime

C[C@]12C=CC(=O)C=C1CC[C@@H]1[C@@H]2C(=O)C[C@@]2(C)[C@H]1CC[C@]2(O)C(=O)CO [prednisone]
adverse outcome of excessive prednisone ([1]; prednisone 40 mg per day): avascular necrosis of both hips and hip replacement

CN(Cc1cnc2nc(N)nc(N)c2n1)c1ccc(C(=O)N[C@@H](CCC(=O)O)C(=O)O)cc1 [methotrexate]
control of the disease by prior therapy [1]: failed to control

etanercept
control of the disease by prior therapy [1]: failed to control
response of chronic joint flares and synovial thickening to treatment ([2]; fifteen years, before pramipexole): resistant
effectiveness of etanercept after pramipexole was added ([2]; over six weeks, pramipexole 2.0 mg per day at bedtime): became more effective

CCCN[C@H]1CCc2nc(N)sc2C1 [pramipexole]
WBC [3, 5]: 2100
WBC count ([3]; on pramipexole at night, 2,300 before treatment): 2400
sympathetic ([4]; Dec. 11, 2001): 61
tension ([4]; Dec. 11, 2001): 374
total power ([4]; Dec. 11, 2001): 102
vagus ([4]; Dec. 11, 2001): .10
sympathetic ([4]; Feb. 5, 2002): 87
tension ([4]; Feb. 5, 2002): 569
total power ([4]; Feb. 5, 2002): 128
vagus ([4]; Feb. 5, 2002): .09
sympathetic ([4]; Nov. 14, 2001): 93
tension ([4]; Nov. 14, 2001): 1278
total power ([4]; Nov. 14, 2001): 24
vagus ([4]; Nov. 14, 2001): .05
sympathetic ([4]; Oct. 10, 2001): 93
tension ([4]; Oct. 10, 2001): 1444
total power ([4]; Oct. 10, 2001): 29
vagus ([4]; Oct. 10, 2001): .05
sympathetic (heart rate variability) [4, 5]: 70
tension (heart rate variability) [4, 5]: 236
total power (heart rate variability) [4, 5]: 280
vagus (heart rate variability) [4, 5]: 0.20
sympathetic (heart rate variability) ([4]; on pramipexole at night): 45
tension (heart rate variability) ([4]; on pramipexole at night): 147
total power (heart rate variability) ([4]; on pramipexole at night): 294
vagus (heart rate variability) ([4]; on pramipexole at night): 0.22
sympathetic (heart rate variability) [4, 6]: 54
tension (heart rate variability) [4, 6]: 220
total power (heart rate variability) [4, 6]: 283
vagus (heart rate variability) [4, 6]: 0.16
sympathetic (heart rate variability) [4, 7]: 43
total power (heart rate variability) [4, 7]: 319
vagus (heart rate variability) [4, 7]: 0.19
tension (heart rate variability) ([4]; pramipexole increased over 4 weeks to 4.5 mg per day at bedtime, now normal): 145
